Laboratory results taken from patent US20100016213A1, “USE OF A DITERPENOID COMPOUND FOR TREATING DIABETES” (National Taiwan University, priority 2008, published 2010).

Legend:
Type in all cases: in vivo
STZ-diabetic mice (IDDM) [1] = test: Lowering plasma glucose levels via oral administration, STZ-diabetic mice; conditions: oral 10.0 mg/kg, sixty minutes after treatment, mean ± SEM, six animals
Experimental: (§1) Normal, STZ-induced diabetic mice, and diet-induced diabetic mice were administered orally with 10.0 mg/kg borapetoside C, glibenclamide or metformin as a positive control, and a vehicle control. The plasma glucose levels of the treated mice were determined before and sixty minutes after treatment and the results thus obtained were shown in Table 3 below.

[2] = tested on: liver phosphoenolpyruvate carboxykinase (PEPCK); test: Liver PEPCK levels by western blot in STZ-induced mice; conditions: borapetoside C 5.0 mg/kg, twice per day for 7 days, insulin dose not given
Experimental: To characterize the effect of borapetoside C on liver glucose utilization, levels of liver phosphoenolpyruvate carboxykinase (PEPCK) were examined by western blot analysis in STZ-induced mice treated with borapetoside C (5.0 mg/kg, twice per day for 7 days), insulin, or a vehicle control.

STZ-diabetic mice (IDDM) [3] = test: Plasma insulin levels before and after treatment (Insulin ELISA), STZ-diabetic mice; conditions: for Plasma insulin, Pre-treatment: before treatment; for Plasma insulin, post-treatment: one hour after treatment
Experimental: (§2) Normal mice, STZ-induced diabetic mice, and diet-induced diabetic mice were administered with a vehicle control, borapetoside A (5.0 mg/kg), borapetoside C (at various doses), glibenclamide (5.0 mg/kg) or metformin (500 mg/kg) by intraperitoneal injection. These mice were examined for their blood insulin levels before and one hour after treatment, using the Insulin(Rat) ELISA kit obtained from Penisula Lab. Inc., San Carlos, Calif., USA.

[4] = tested on: Diet-induced diabetic mice (NIDDM); test: Lowering plasma glucose levels via oral administration, diet-induced diabetic mice; conditions: oral 10.0 mg/kg, sixty minutes after treatment, mean ± SEM, six animals
Experimental: as §1

normal mice [5] = test: Glycogen content in skeletal muscle, normal mice; conditions: 5 mg/kg i.p., 30 minutes after injection
Experimental: (§3) Normal, STZ-induced diabetic, and DIO-induced diabetic mice were intraeritoneally injected with borapetoside C (5 mg/kg) and Actrapid (0.5 IU/kg; a short-acting insulin provided by Novo Nordisk) or metformin (500 mg/kg). Their glycogen contents in skeletal muscle were determined 30 minutes after injections.

normal mice [6] = test: Plasma insulin levels before and after treatment (Insulin ELISA), normal mice; conditions: for Plasma insulin, Pre-treatment: before treatment; for Plasma insulin, post-treatment: one hour after treatment
Experimental: as §2

normal mice [7] = test: Lowering plasma glucose level, intraperitoneal injection, normal mice; conditions: for Plasma Glucose Level, After / Plasma Glucose Level, Before: Normal mice; for Plasma Glucose Level, After: after treatment; for Plasma Glucose Level, Before: before treatment
Experimental: (§4) Normal and streptozotocin (STZ)-induced diabetic mice were administered with borapetoside A (5.0 mg/kg), borapetoside C (5.0 mg/kg), glibenclamide (5.0 mg/kg), metformin (500.0 mg/kg), or a vehicle control via intraperitoneal injection. STZ-induced diabetic mice are a well-known mouse model of type I diabetes (insulin dependent). See, e.g., Liu I M, et al., Neuroscience Letters 2001; 307: 81-84. Glibenclamide and metformin serve as two positive controls in this study.
(§5) The plasma glucose levels of the treated mice were determined before and one hour after administration. The activity of lowering plasma glucose levels (AL) is calculated following the formula: […]
(§6) Borapetoside C was administered to normal mice at 0.1, 1.0, 3.0, and 5.0 mg/kg and to STZ-diabetic mice at 0.1, 1.0, 3.0, and 5.0 mg/kg. The plasma glucose levels of the treated mice were examined before and after treatment.

[8] = tested on: Diet-induced diabetic (NIDDM) mice; test: Plasma insulin levels before and after treatment (Insulin ELISA), diet-induced diabetic mice; conditions: for Plasma insulin, Pre-treatment: before treatment; for Plasma insulin, post-treatment: one hour after treatment
Experimental: as §2

Normal ICR mice = test: Intraperitoneal glucose tolerance test (IPGTT), normal ICR mice; conditions: borapetoside C 5.0 mg/kg
Experimental: Normal ICR mice and DIO-induced diabetic mice, treated with borapetoside C (5.0 mg/kg), a vehicle control, or glibenclamide (positive control), were subjected to an intraperitoneal glucose tolerance test (IPGTT) as described in Lamont et al., Diabetes 2008; 57: 190-198. More specifically, glucose (2.0 mg/g body weight) was administered via IP injection to normal and DIO mice and blood samples were drawn from the treated mice before and 30, 60, 120, and 150 min after glucose administration for examination of glucose levels.
In normal mice treated with borapetoside C, the vehicle control, and glibenclamide, the basal plasma glucose concentrations were 106.8±4.7 mg/dL, 114.7±4.6 mg/dL, and 104.9±3.1 mg/dL, respectively. Thirty minutes after intraperitoneal glucose injection, the plasma glucose concentration was elevated to 346.2±14.7 mg/dL in vehicle-treated mice, to 292.9±10.9 mg/dL in borapetoside C-treated mice, or to 273.4±13.6 mg/dL in glibenclamide-treated mice.

[9] = tested on: STZ-induced diabetic mice; test: Lowering plasma glucose level, intraperitoneal injection, STZ-induced diabetic mice (type I diabetes model); conditions: for Plasma Glucose Level, After: after treatment; for Plasma Glucose Level, Before: before treatment
Experimental: as §4, §5, §6

[10] = tested on: DIO-induced diabetic mice(NIDDM); test: Glycogen content in skeletal muscle, DIO-induced diabetic mice; conditions: 5 mg/kg i.p., 30 minutes after injection
Experimental: as §3

COC(=O)C1=CCC[C@H]2[C@]3(C)C[C@@H](c4ccoc4)OC(=O)[C@@H]3C[C@@H](O[C@@H]3O[C@H](CO)[C@@H](O)[C@H](O)[C@H]3O)[C@@]12C [borapetoside C]
Activity of lowing plasma glucose levels (%) (STZ-diabetic mice (IDDM) [1]): 17.7 ± 1.7 %
liver PEPCK levels versus vehicle control-treated mice (western blot) [2]: much lower
Plasma insulin, Pre-treatment (STZ-diabetic mice (IDDM) [3]; 0.1 mg/kg i.p.): 15.2 ± 0.8 pmol/L
Plasma insulin, post-treatment (STZ-diabetic mice (IDDM) [3]; 0.1 mg/kg i.p.): 16.3 ± 0.9 pmol/L
Plasma insulin, Pre-treatment (STZ-diabetic mice (IDDM) [3]; 0.5 mg/kg i.p.): 15.5 ± 0.6 pmol/L
Plasma insulin, post-treatment (STZ-diabetic mice (IDDM) [3]; 0.5 mg/kg i.p.): 15.9 ± 0.6 pmol/L
Plasma insulin, Pre-treatment (STZ-diabetic mice (IDDM) [3]; 1.0 mg/kg i.p.): 15.7 ± 0.8 pmol/L
Plasma insulin, post-treatment (STZ-diabetic mice (IDDM) [3]; 1.0 mg/kg i.p.): 15.9 ± 0.4 pmol/L
Plasma insulin, Pre-treatment (STZ-diabetic mice (IDDM) [3]; 3.0 mg/kg i.p.): 13.8 ± 1.6 pmol/L
Plasma insulin, post-treatment (STZ-diabetic mice (IDDM) [3]; 3.0 mg/kg i.p.): 14.8 ± 0.5 pmol/L
Plasma insulin, Pre-treatment (STZ-diabetic mice (IDDM) [3]; 5.0 mg/kg i.p.): 15.0 ± 0.5 pmol/L
Plasma insulin, post-treatment (STZ-diabetic mice (IDDM) [3]; 5.0 mg/kg i.p.): 14.4 ± 0.6 pmol/L
Activity of lowing plasma glucose levels (%) [4]: 28.2 ± 3.1 %
Glycogen content (μmol/g wet weight) (normal mice [5]): 25.1 ± 1.3 μmol/g wet weight
Plasma insulin, Pre-treatment (normal mice [6]; 0.1 mg/kg i.p.): 54.0 ± 3.4 pmol/L
Plasma insulin, post-treatment (normal mice [6]; 0.1 mg/kg i.p.): 71.5 ± 5.3 pmol/L
Plasma insulin, Pre-treatment (normal mice [6]; 0.5 mg/kg i.p.): 52.2 ± 3.0 pmol/L
Plasma insulin, post-treatment (normal mice [6]; 0.5 mg/kg i.p.): 65.7 ± 9.8 pmol/L
Plasma insulin, Pre-treatment (normal mice [6]; 1.0 mg/kg i.p.): 58.9 ± 3.5 pmol/L
Plasma insulin, post-treatment (normal mice [6]; 1.0 mg/kg i.p.): 65.0 ± 6.0 pmol/L
Plasma insulin, Pre-treatment (normal mice [6]; 3.0 mg/kg i.p.): 52.0 ± 3.7 pmol/L
Plasma insulin, post-treatment (normal mice [6]; 3.0 mg/kg i.p.): 142.6 ± 29.2 pmol/L
Plasma insulin, Pre-treatment (normal mice [6]; 5.0 mg/kg i.p.): 56.6 ± 2.3 pmol/L
Plasma insulin, post-treatment (normal mice [6]; 5.0 mg/kg i.p.): 139.4 ± 25.5 pmol/L
Plasma Glucose Level, After (normal mice [7]; 0.1 mg/kg): 97.7 ± 6.2 mg/dL
Plasma Glucose Level, Before (normal mice [7]; 0.1 mg/kg): 99.7 ± 3.8 mg/dL
Plasma Glucose Level, After (normal mice [7]; 1.0 mg/kg): 82.6 ± 2.9 mg/dL
Plasma Glucose Level, Before (normal mice [7]; 1.0 mg/kg): 96.4 ± 4.2 mg/dL
Plasma Glucose Level, After (normal mice [7]; 3.0 mg/kg): 79.4 ± 6.9 mg/dL
Plasma Glucose Level, Before (normal mice [7]; 3.0 mg/kg): 96.3 ± 8.0 mg/dL
Plasma Glucose Level, After (normal mice [7]; 5.0 mg/kg): 67.0 ± 4.5 mg/dL
Plasma Glucose Level, Before (normal mice [7]; 5.0 mg/kg): 98.2 ± 3.9 mg/dL
Activities of Lowering Plasma Glucose Levels (AL) (normal mice [7]; normal mice, 5.0 mg/kg intraperitoneal injection, one hour after administration): 36.2 ± 5.6%
Plasma insulin, Pre-treatment ([8]; 0.1 mg/kg i.p.): 110.3 ± 4.5 pmol/L
Plasma insulin, post-treatment ([8]; 0.1 mg/kg i.p.): 114.0 ± 7.6 pmol/L
Plasma insulin, Pre-treatment ([8]; 0.5 mg/kg i.p.): 116.5 ± 5.7 pmol/L
Plasma insulin, post-treatment ([8]; 0.5 mg/kg i.p.): 174.7 ± 4.8 pmol/L
Plasma insulin, Pre-treatment ([8]; 1.0 mg/kg i.p.): 111.1 ± 2.0 pmol/L
Plasma insulin, post-treatment ([8]; 1.0 mg/kg i.p.): 178.5 ± 14.6 pmol/L
Plasma insulin, Pre-treatment ([8]; 3.0 mg/kg i.p.): 113.2 ± 2.8 pmol/L
Plasma insulin, post-treatment ([8]; 3.0 mg/kg i.p.): 254.0 ± 23.4 pmol/L
Plasma insulin, Pre-treatment ([8]; 5.0 mg/kg i.p.): 107.4 ± 5.5 pmol/L
Plasma insulin, post-treatment ([8]; 5.0 mg/kg i.p.): 255.8 ± 15.9 pmol/L
basal plasma glucose concentration (IPGTT) (Normal ICR mice; before glucose injection): 106.8 ± 4.7 mg/dL
plasma glucose levels at 60 min, 120 min, and 150 min versus control mice (IPGTT) (Normal ICR mice; glucose 2.0 mg/g IP): significantly lower
plasma glucose concentration thirty minutes after intraperitoneal glucose injection (IPGTT) (Normal ICR mice; glucose 2.0 mg/g body weight IP, vehicle 346.2±14.7): 292.9 ± 10.9 mg/dL
Plasma Glucose Level, After ([9]; 0.1 mg/kg): 529.0 ± 14.7 mg/dL
Plasma Glucose Level, Before ([9]; 0.1 mg/kg): 580.0 ± 7.8 mg/dL
Plasma Glucose Level, After ([9]; 1.0 mg/kg): 472.2 ± 13.9 mg/dL
Plasma Glucose Level, Before ([9]; 1.0 mg/kg): 566.6 ± 11.4 mg/dL
Plasma Glucose Level, After ([9]; 3.0 mg/kg): 493.8 ± 15.3 mg/dL
Plasma Glucose Level, Before ([9]; 3.0 mg/kg): 572.2 ± 16.2 mg/dL
Activities of Lowering Plasma Glucose Levels (AL) ([9]; 5.0 mg/kg intraperitoneal injection, one hour after administration): 16.5 ± 2.9%
Plasma Glucose Level, After ([9]; 5.0 mg/kg): 481.1 ± 20.8 mg/dL
Plasma Glucose Level, Before ([9]; 5.0 mg/kg): 576.0 ± 11.1 mg/dL
Glycogen content (μmol/g wet weight) [10]: 23.3 ± 0.4 μmol/g wet weight
